In PubChem BioAssay AID602260 (Sanford-Burnham Center for Chemical Genomics, 2012):
Calls of active or inactive are those of the source.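 How the source made its calls: active means mean IC50 at or below 20 µM; inactive means the rest.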

Each molecule was assayed against Polyadenylate-binding protein 1 (Homo sapiens) (UniProt P11940) (assay: MLLE binding blockers, Cy5 peptide tracer – biochemical, fluorescence polarization, Cy5-PAM2 peptide, secondary, miRNA deadenylation inhibitor project, dose response (AID 602260)). Settings: GST-Mlle / Cy5-PAM2 peptide fluorescence polarization.
Sequence of Polyadenylate-binding protein 1 (Homo sapiens) (P11940 whole entry, looked up): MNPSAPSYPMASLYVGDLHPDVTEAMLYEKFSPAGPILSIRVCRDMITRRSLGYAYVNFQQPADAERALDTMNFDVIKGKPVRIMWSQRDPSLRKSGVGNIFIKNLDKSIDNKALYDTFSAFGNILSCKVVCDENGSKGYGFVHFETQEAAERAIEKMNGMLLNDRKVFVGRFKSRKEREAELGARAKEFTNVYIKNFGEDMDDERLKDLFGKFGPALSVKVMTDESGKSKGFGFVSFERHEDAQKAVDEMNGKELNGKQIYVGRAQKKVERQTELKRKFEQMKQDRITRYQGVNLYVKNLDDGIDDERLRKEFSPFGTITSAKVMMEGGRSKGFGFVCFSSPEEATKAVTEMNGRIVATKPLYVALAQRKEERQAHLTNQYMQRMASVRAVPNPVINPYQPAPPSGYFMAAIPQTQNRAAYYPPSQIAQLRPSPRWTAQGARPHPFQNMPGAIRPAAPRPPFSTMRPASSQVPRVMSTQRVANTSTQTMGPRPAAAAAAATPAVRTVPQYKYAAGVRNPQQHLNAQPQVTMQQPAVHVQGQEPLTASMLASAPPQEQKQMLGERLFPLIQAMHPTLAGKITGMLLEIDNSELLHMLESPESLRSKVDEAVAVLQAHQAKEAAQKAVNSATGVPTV
With `CCOC(=O)c1c(/N=C/c2cccc([N+](=O)[O-])c2O)sc(C)c1C` the IC50 was “inactive”. `C[c-]1[c-](C)[c-](C)[c-](C)[c-]1C.[Fe].c1cc2nccc(N3CCCC3)[c-]2c1` (stereo not drawn) was tested, and the IC50 was > 66 µM (inactive). In the case of `COc1ccc(NC(=O)Nc2ccc([N+](=O)[O-])cc2)cn1`, the IC50 was “inactive”.
